What all share (experiment): growth of human tumour cells (NCI), 48 h
Assay [1] concerns SK-MEL-5 melanoma.
The test system of assay [2] is MDA-MB-231 breast.
The test system of assay [3] is SK-MEL-2 melanoma.
Assay [4] relates to NCI/ADR-RES ovarian.
Assay [5] has as its system OVCAR-5 ovarian.
The subject of assay [6] is SF-539 CNS.
For assay [7], the system named is RPMI-8226 leukemia.
In assay [8] the test system is HOP-62 NSCLC.
In assay [9] the test system is SR leukemia.
Assay [10] relates to SK-MEL-28 melanoma.

Several values for one entry are separate records, joined by “and”; a condition that tells them apart may be missing. Equal entries are not always repeated.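 Dose response: 5 concentrations. Exposure: 48 h. Format: 96-well plates. Endpoint: linear interpolation; highest concentration if not reached. The concentration for 50% growth inhibition is given as GI50. TGI denotes the concentration required for complete inhibition of growth.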

As to `Cc1cc(NCc2cc(Nc3ccnc4cc(Cl)ccc34)ccc2F)nc(N2CCN(C)CC2)n1`, the GI50 in assay [1] is 1.69 µM; in assay [2] it was 1.64 µM; in assay [3] it was 2.03 µM; in [4], 2.36 µM; in assay [5], 2.05 µM; in assay [6], 1.79 µM. Moreover, the GI50 in assay [7] is 1.32 µM; in assay [8], 1.62 µM; in assay [9], 0.245 µM; in [10], 1.7 µM. Also, the TGI in assay [1] was determined as 3.07 µM; in assay [2], 3.74 µM; in [3], 3.93 µM; in assay [4], 7.72 µM; in assay [5], 5.17 µM; in assay [6] it was 3.37 µM. Moreover, the TGI turned out to be 3.65 µM in assay [7], 4.79 µM in assay [8], 1.03 µM in [9] and 3.26 µM in [10].

For the compound `COc1ccccc1N1CCN(CCc2c[nH]c3cc4c(cc23)OCO4)CC1`, the GI50 in [1] was 13.2 µM; in [2], 21.4 µM; in [3], 21.3 µM; in assay [4], 26.4 µM; in assay [5], 15.5 µM; in assay [6], 20.2 µM. The GI50 in [7] is 25.1 µM; in assay [8], 28.6 µM; in assay [9], 23.8 µM; in [10] it was 43.9 µM. Also, the TGI was 26.2 µM in [1]; 77.7 µM in [2]; 56.3 µM in assay [3]; greater than 100 µM in assay [4]; greater than 100 µM in assay [5]; greater than 100 µM in assay [6]. In addition, the TGI was greater than 100 µM in [7], greater than 100 µM in [8], 99 µM in assay [9] and greater than 100 µM in assay [10].

As for `COc1cc(Cl)cc(-c2nn(-c3cccc(NC(=O)Nc4cc(C(F)(F)F)cc(C(F)(F)F)c4)c3)cc2-c2ccncc2)c1`, the GI50 in assay [1] was 1.09 µM; in [2], 0.726 µM; in assay [3], 0.454 µM; in [4], 0.778 µM; in [5], 1.6 µM; in assay [6], 1.48 µM. Also, the GI50 is 0.288 µM in assay [7], 0.851 µM in [8], 0.439 µM in [9] and 1.07 µM in [10]. Besides, the TGI was found to be 2.33 µM in assay [1]; 2.26 µM in [2]; 1.91 µM in assay [3]; 9.66 µM in [4]; 10.1 µM in assay [5]; 3.61 µM in assay [6]. Moreover, the TGI was found to be 1.03 µM in [7], 2.6 µM in [8], 3.51 µM in assay [9] and 4.83 µM in assay [10].

For the compound `COc1cc(NC(=O)CSc2nc3ccc(C)cc3c(=O)n2Cc2ccccc2)cc(OC)c1OC`, the GI50 was 3.67 µM in assay [1]; 3.42 µM in assay [2]; 3.38 µM in [3]; 8.97 µM in assay [4]; 58 µM in [5]; 3.46 µM in assay [6]. Moreover, the GI50 was 69.3 µM in [7], 2.3 µM in assay [8], 52.7 µM in assay [9] and 7.04 µM in assay [10]. Moreover, the TGI in [1] is 23.7 µM; in assay [2], greater than 100 µM; in assay [3], 10.6 µM; in [4], greater than 100 µM; in assay [5], greater than 100 µM; in [6], 13.8 µM. Moreover, the TGI was greater than 100 µM in assay [7], 5.8 µM in assay [8], greater than 100 µM in [9] and 59.7 µM in assay [10].

Consider `CC(=O)OCC(=O)[C@@]12OC(C)(C)O[C@@H]1C[C@H]1[C@@H]3CC=C4C[C@@H](O)CC[C@]4(C)[C@H]3CC[C@@]12C`, for which the TGI was greater than 100 µM in assay [1]; greater than 100 µM in assay [2]; greater than 100 µM in assay [3]; greater than 100 µM in assay [4]; greater than 100 µM in [5]; 74.7 µM in [6]. Further, the TGI in assay [7], in assay [8], in assay [9] and in assay [10] was greater than 100 µM throughout.

In the case of `O=C1C2C(c3ccccc3)NC(c3ccccc3)C1C(c1ccccc1)NC2c1ccccc1` (stereo not given), the TGI in assay [1], in assay [2], in [3], in assay [4], in assay [5] and in assay [6] was greater than 100 µM in each case. The TGI in assay [7], in assay [8], in assay [9] and in [10] was greater than 100 µM each time.

Take `COc1cccc(OCCCN)c1-c1cc(Nc2cnc(C#N)cn2)n[nH]1`: the GI50 in assay [1] is 0.0318 µM and 0.0224 µM; in assay [2], 0.933 µM; in assay [3], 0.00476 µM; in [4], 0.071 µM and 0.054 µM; in assay [5] it was 0.0381 µM and 0.043 µM; in [6], 0.00366 µM. In addition, the GI50 in assay [7] is 0.197 µM and 0.0489 µM; in assay [8], 0.0136 µM and 0.0303 µM; in assay [9] it was 0.0032 µM; in assay [10], 0.955 µM and 3.11 µM. Also, the TGI in assay [1] is 1.59 µM; in assay [2], 11.9 µM; in assay [3] it was 0.0644 µM; in assay [4], 17.3 µM; in assay [5], 15.2 µM; in assay [6] it was 0.0627 µM and 0.12 µM. Further, the TGI was 7.59 µM in assay [7], 13 µM in assay [8], 1.25 µM in [9] and 17.4 µM in assay [10].

As for `O=C(O)C1C(C(=O)O)C23CC2(C(=O)O)C2(C(=O)O)CCC3=C3CCCC312` (stereo not given), the TGI is 18.2 µM in assay [1]; 41 µM in assay [2]; 38.8 µM in [3]; greater than 100 µM in [4]; 47.3 µM in assay [5]; 34.8 µM in assay [6]. Besides, the TGI in assay [7] turned out to be 37.9 µM; in assay [8] it was 22.4 µM; in assay [9], 6.6 µM; in assay [10] it was 29.9 µM.

With `N#CC1=C(N)Oc2c(sc3c(Br)cccc23)C1c1ccc(Br)cc1` (stereo not given), the GI50 in assay [1] is 2.21 µM; in assay [2], 1.21 µM; in assay [3] it was 0.434 µM; in [4], 0.416 µM; in assay [5], 3.12 µM; in assay [6], 0.793 µM. Also, the GI50 in assay [7] is 1.44 µM; in assay [8], 0.41 µM; in assay [9], 0.208 µM; in assay [10], 1.44 µM. For the same compound, the TGI in assay [1] came out at 14.6 µM; in [2], 3.7 µM; in assay [3], 4 µM; in assay [4], 5.14 µM; in assay [5], 14.3 µM; in [6], 3.02 µM. Further, the TGI in assay [7] amounted to 16 µM; in assay [8], 2.62 µM; in assay [9] it was 5.91 µM; in assay [10] it was 13.3 µM.

`OC(CNCC1CCCO1)Cn1c2ccc(Cl)cc2c2cc(Cl)ccc21` (stereo not given): the GI50 in [1] was 1.77 µM; in assay [2] it was 1.75 µM; in assay [3], 2.29 µM; in assay [4], 1.93 µM; in assay [5] it was 1.89 µM; in assay [6], 1.66 µM. For the same compound, the GI50 in assay [7] was 2.69 µM; in assay [8], 1.72 µM; in [9], 2.05 µM; in [10], 1.67 µM. Moreover, the TGI turned out to be 3.26 µM in assay [1]; 3.5 µM in [2]; 4.28 µM in assay [3]; 3.82 µM in [4]; 3.61 µM in assay [5]; 3.13 µM in [6]. The TGI in [7] was found to be 6.2 µM; in assay [8], 3.39 µM; in assay [9], 5.5 µM; in assay [10], 3.15 µM.

For `CCN(CC)CCn1c2ccccc2c(=O)c2c(O)ccc(O)c21`, the TGI is 45.5 µM in [1]; 29.9 µM in assay [2]; 50.4 µM in assay [3]; 44 µM in assay [4]; greater than 78.5 µM in [5]; 50.3 µM in [6]. Also, the TGI in assay [7] was determined as 85.4 µM; in assay [8], 86.5 µM; in assay [9] it was 26.2 µM; in assay [10], 48.6 µM.

For `CC(C)COCC(CN(Cc1ccccc1)c1ccccc1)N1CCCC1` (stereo not given), the GI50 was 1.65 µM in assay [1]; 1.84 µM in assay [2]; 2.73 µM in assay [3]; 3.12 µM in [4]; 3.93 µM in assay [5]; 6.46 µM in assay [6]. Further, the GI50 in [7] was 1.91 µM; in assay [8] it was 2.82 µM; in assay [9], 2.08 µM; in assay [10], 3.48 µM. The TGI in assay [1] worked out at 3.01 µM; in assay [2] it was 5.22 µM; in [3] it was 8 µM; in assay [4], 14.4 µM; in assay [5], 15.8 µM; in assay [6], 19.4 µM. Besides, the TGI in assay [7] came to 5.41 µM; in [8], 14.4 µM; in assay [9] it was 5.34 µM; in assay [10], 13.8 µM.

Consider `CN1C(=O)C(CC(=O)O)NC1=S` (stereo not given), for which the TGI in [1], in assay [2], in [3], in assay [4], in assay [5] and in assay [6] was greater than 100 µM in each case. Moreover, the TGI in assay [7], in [8], in assay [9] and in [10] was greater than 100 µM each time.

For the compound `O=C(c1ccccc1)C(Br)C(Br)c1cccc([N+](=O)[O-])c1` (stereo not given), the GI50 in [1] is 2.89 µM; in assay [2], 1.96 µM; in assay [3] it was 3.03 µM; in assay [4] it was 2.88 µM; in assay [5] it was 2.46 µM; in assay [6], 2.32 µM. Moreover, the GI50 in assay [7] is 2.15 µM; in [8], 4.26 µM; in assay [9] it was 1.2 µM; in [10], 1.87 µM. For the same compound, the TGI in assay [1] turned out to be 10.8 µM; in assay [2], 3.79 µM; in assay [3] it was 8.48 µM; in assay [4], 8.82 µM; in assay [5] it was 5.65 µM; in assay [6], 5.05 µM. The TGI in [7] is 6.24 µM; in [8], 14.4 µM; in assay [9] it was 4.53 µM; in assay [10] it was 3.64 µM.

The values are drawn from PubChem BioAssay (NCI).
